Results on 14 molecules are retold here after patent EP4778931A1, “ULK1 INHIBITOR, PREPARATION METHOD THEREFOR AND USE THEREOF” (Dovetree Medicines Unus, Inc., priority 2023, dated 2025).

SMILES strings stand for the structures.

For the assay, the system named is autophagy level in HEK293 GFP-LC3 stably transfected cells. The assay is described as follows: Inhibition of autophagy level in HEK293 GFP-LC3 stably transfected cells (GFP fluorescence, high-content imaging). It counts as cell-based. The settings on record: Homo sapiens, Torin1 100 nM, 24 h incubation, 8 concentrations, highest 10 µM, read-out: Autophagic Flux IC50. The method, then: The inhibitory effect of the compound of the present disclosure on intracellular autophagy was evaluated by testing the impact of the compound of the present disclosure on the fluorescence intensity of HEK293 GFP-LC3 stably transfected cells.
HEK293 GFP-LC3 stably transfected cells (HEK293, ATCC, CRL-1573) were cultured in a complete medium, namely, a DMEM medium (Gibco, 11965-092) containing 10% fetal bovine serum (Corning, 35-081-CV), 1% double antibody (Gibco, 15140-122) and 1 µg/mL of Puromycin (Invitrogen- A1113803).
Cell plating: HEK293 GFP-LC3 stably transfected cells at 80% growth confluence were digested, diluted with a medium free of Puromycin, and added to a 96-well cell culture plate (Geriner, 655090) at 12,000 cells per well, with a volume of 90 µL.
Compound incubation: 5 µL of Torin1 and 5 µL of a serially diluted compound were added to each well so that the highest concentration of the compound in the reaction system was 10 µM. 3-fold serial dilution with 8 concentrations was performed, and the final concentration of Torin1 was 100 nM. The DMSO content in the system was 0.1%. The positive control wells (PC) contain DMSO at a final concentration of 0.1%, and the negative control wells (NC) contain 100 nM of Torin1 with 0.1% of DMSO. The reaction plate was placed in an incubator at 37°C in 5% CO2, and was incubated for 24 h.
Cell staining and fixation: The cell plate was taken out, and 10 µL of Hochest33342 nuclear staining reagent (Thermo, H1399) was added to each well, followed by incubation at 37°C in 5% CO2 for 30 min. After the incubation was completed, the cell supernatant was discarded, and 100 µL of pre-cooled 4% paraformaldehyde was added to each well to fix the cells for 15 min. Then, the fixative was discarded, and 100 µL of PBS was added to each well. Images were captured for analysis using a high-content cell imaging analyzer (PE, Operetta CLS), and GFP fluorescence signals were collected for data processing.
The average GFP fluorescence signal intensity in the reaction wells was collected for the calculation of the inhibition ratio: [formula]
The dose-effect curve was fitted using the log(inhibitor) vs. response -Variable slope of Graphpad Prism8, thereby affording the IC50 value of each compound for inhibiting autophagy level in HEK293 GFP-LC3 stably transfected cells.

As to `CN1CCN2c3ccc(Nc4ncc(C(F)(F)F)c(N[C@H]5CC[C@@H](n6cccn6)CC5)n4)cc3COCC2C1` (some centres unmarked) [Compound 6], the IC50 lay in the range of 100 to 1000 nM.
As to `CN1CCN2c3ccc(Nc4ncc(C(F)(F)F)c(OCCCN5CCCCC5=O)n4)cc3OCC2C1` (centres unmarked) [Compound 12], the IC50 fell in the range of 100 to 1000 nM.
To `CN1CCN2c3ccc(Nc4ncc(C(F)(F)F)c(OCCCN5CCCCC5=O)n4)cc3COCC2C1` (centres unmarked) [Compound 3] belongs 100 to 1000 nM.
As for `CN1CCN2c3ccc(Nc4ncc(C(F)(F)F)c(NCCCN5CCCCC5=O)n4)cc3COCC2C1` (centres unmarked) [Compound 11], the IC50 was above 1000 nM.
On to `CN1CCN2c3ccc(Nc4ncc(C(F)(F)F)c(N5CCC6(CCN(C)C6)CC5)n4)cc3COCC2C1` (centres unmarked) [Compound 2], for which the IC50 was in the range of 100 to 1000 nM.
For `CN1CCN2c3ccc(Nc4ncc(C(F)(F)F)c(OCCCn5cccn5)n4)cc3COCC2C1` (centres unmarked) [Compound 23], the IC50 lay within 100 to 1000 nM.
Consider `CN1CCN2c3ccc(Nc4ncc(C(F)(F)F)c(N5CCN(C)C(=O)C5)n4)cc3COCC2C1` (centres unmarked) [Compound 1], for which the IC50 is above 1000 nM.
On to `CN1CCN2c3ccc(Nc4ncc(C(F)(F)F)c(OCCCc5ccccc5C#N)n4)cc3COCC2C1` (centres unmarked) [Compound 9], for which the IC50 was 100 to 1000 nM.
Then `CN1CCN2c3ccc(Nc4ncc(C(F)(F)F)c(N5CCC6(CCN(C)C6)C5)n4)cc3COCC2C1` (centres unmarked) [Compound 5], with 100 to 1000 nM.
`CN1CCN2c3ccc(Nc4ncc(C(F)(F)F)c(N5CC6(CCN(C)C6)C5)n4)cc3COCC2C1` (centres unmarked) [Compound 20]: the IC50 was above 1000 nM.
Turning to `CN1CCN2c3ccc(Nc4ncc(C(F)(F)F)c(NC5CCN(C(=O)C6CCC6)CC5)n4)cc3COCC2C1` (centres unmarked) [Compound 21], the 50% inhibitory concentration (IC50) was in the range of 100 to 1000 nM.
With `CN1CCN2c3ccc(Nc4ncc(C(F)(F)F)c(N5CC6(CN(C)C6)C5)n4)cc3COCC2C1` (centres unmarked) [Compound 22], the IC50 was above 1000 nM.
Then `CN1CCN2c3ccc(Nc4ncc(C(F)(F)F)c(NCCCn5cccn5)n4)cc3COCC2C1` (centres unmarked) [Compound 8], with 100 to 1000 nM; and `CN1CCN2c3ccc(Nc4ncc(C(F)(F)F)c(N5CCC(n6cccn6)CC5)n4)cc3COCC2C1` (centres unmarked) [Compound 4], with 100 to 1000 nM.
